Test results: ChEMBL document CHEMBL6078703, “Discovery of Novel Thiophene-Based Baloxavir Derivatives as Potent Cap-Dependent Endonuclease Inhibitors for Influenza Treatment” (J Med Chem, 2024)
The source made the active and inactive calls. The calls are words filed in the database; no cut-off is given here.

Assays:
[1] = Cytotoxicity against human HepG2 cells assessed as cell viability measured after 48 hrs by CCK-8 assay; format: toxicity, cell-based
[2] = Acute toxicity in CD-1 mouse assessed as abnormal lesions in intestine at 2000 mg/kg, po single dose measured for 2 weeks by macroscopic examination; format: organism-based; conditions: in vivo, 336 h
[3] = test system: Influenza A virus; assay: In vivo antiviral activity against influenza strain A/WSN/1933 (H1N1) infected in BALB/c mouse assessed as improvement in septal thickening in lungs at 10 to 20 mg/kg, IG treated 12 hrs after infection measured on 9 dpi by histopathological analysis; format: functional, organism-based; conditions: dose 10-20 mg/kg, time 9.0 day
[4] = test system: Influenza A virus; assay: In vivo antiviral activity against influenza strain A/WSN/1933 (H1N1) infected in BALB/c mouse assessed as weight regaining at 10 to 40 mg/kg, IG treated 12 hrs after infection measured on 9 dpi; format: functional, organism-based; conditions: dose 10-40 mg/kg, time 9.0 day
[5] = test system: Influenza A virus; assay: In vivo antiviral activity against influenza strain A/WSN/1933 (H1N1) infected in BALB/c mouse assessed as improvement in alveolar collapse in lungs at 20 to 40 mg/kg, IG treated 12 hrs after infection measured on 9 dpi by histopathological analysis; format: functional, organism-based; conditions: dose 20-40 mg/kg, time 9.0 day
[6] = test system: Influenza A virus; assay: In vivo antiviral activity against influenza strain A/WSN/1933 (H1N1) infected in BALB/c mouse assessed as improvement in septal thickening in lungs at 20 to 40 mg/kg, IG treated 12 hrs after infection measured on 9 dpi by histopathological analysis; format: functional, organism-based; conditions: dose 20-40 mg/kg, time 9.0 day
[7] = Cytotoxicity against human Hep3B cells assessed as cell viability measured after 48 hrs by CCK-8 assay; format: toxicity, cell-based, Hep 3B2
[8] = test system: Influenza A virus; assay: In vivo antiviral activity against influenza strain A/WSN/1933 (H1N1) infected in BALB/c mouse assessed as inhibition of virus-induced inflammatory cytokine IL-6 level at 10 to 40 mg/kg, IG treated 12 hrs after infection measured on 9 dpi; format: functional, organism-based; conditions: dose 10-40 mg/kg, time 9.0 day
[9] = test system: Influenza A virus; assay: In vivo antiviral activity against influenza strain A/WSN/1933 (H1N1) infected in BALB/c mouse assessed as inhibition of virus-induced inflammatory cytokine IFNgamma level at 10 to 40 mg/kg, IG treated 12 hrs after infection measured on 9 dpi; format: functional, organism-based; conditions: dose 10-40 mg/kg, time 9.0 day
[10] = Acute toxicity in CD-1 mouse assessed as abnormal lesions in lungs at 2000 mg/kg, po single dose measured for 2 weeks by macroscopic examination; format: organism-based; conditions: in vivo, 336 h
[11] = Cytotoxicity against human 786O cells assessed as cell viability measured after 48 hrs by CCK-8 assay; format: toxicity, cell-based, 786-0
[12] = Acute toxicity in CD-1 mouse assessed as abnormal lesions in spleen at 2000 mg/kg, po single dose measured for 2 weeks by macroscopic examination; format: organism-based; conditions: in vivo, 336 h
[13] = Acute toxicity in CD-1 mouse assessed as abnormal lesions in kidney at 2000 mg/kg, po single dose measured for 2 weeks by macroscopic examination; format: organism-based; conditions: in vivo, 336 h
[14] = test system: Influenza A virus; assay: In vivo antiviral activity against influenza strain A/WSN/1933 (H1N1) infected in BALB/c mouse assessed as reduction in overall inflammation in lungs at 10 to 20 mg/kg, IG treated 12 hrs after infection measured on 9 dpi by histopathological analysis; format: functional, organism-based; conditions: dose 10-20 mg/kg, time 9.0 day
[15] = test system: Influenza A virus; assay: In vivo antiviral activity against influenza strain A/WSN/1933 (H1N1) infected in BALB/c mouse assessed as inhibition of virus-induced inflammatory cytokine TNF-alpha level at 10 to 40 mg/kg, IG treated 12 hrs after infection measured on 9 dpi; format: functional, organism-based; conditions: dose 10-40 mg/kg, time 9.0 day
[16] = Cytotoxicity against human Huh-7 cells assessed as cell viability measured after 48 hrs by CCK-8 assay; format: toxicity, cell-based
[17] = Acute toxicity in CD-1 mouse assessed as mouse survival at 2000 mg/kg, po single dose measured for 2 weeks; format: organism-based; conditions: in vivo, 336 h
[18] = test system: Influenza A virus; assay: In vivo antiviral activity against influenza strain A/WSN/1933 (H1N1) infected in BALB/c mouse assessed as inhibition of virus-induced inflammatory cytokine IL-1beta level at 10 to 40 mg/kg, IG treated 12 hrs after infection measured on 9 dpi; format: functional, organism-based; conditions: dose 10-40 mg/kg, time 9.0 day
[19] = Acute toxicity in CD-1 mouse assessed as clinical signs of toxicity at 2000 mg/kg, po single dose measured for 2 weeks; format: organism-based; conditions: in vivo, 336 h
[20] = test system: Influenza A virus; assay: In vivo antiviral activity against influenza strain A/WSN/1933 (H1N1) infected in BALB/c mouse assessed as increase in mouse survival at 10 to 40 mg/kg, IG treated 12 hrs after infection measured on 9 dpi; format: functional, organism-based; conditions: dose 10-40 mg/kg, time 9.0 day
[21] = test system: Influenza A virus; assay: In vivo antiviral activity against influenza strain A/WSN/1933 (H1N1) infected in BALB/c mouse assessed as improvement in alveolar collapse in lungs at 10 to 20 mg/kg, IG treated 12 hrs after infection measured on 9 dpi by histopathological analysis; format: functional, organism-based; conditions: dose 10-20 mg/kg, time 9.0 day
[22] = AUC (0 to infinity) in CD-1 mouse at 1 mg/kg, iv measured up to 24 hrs by LC-MS/MS analysis; format: ADME, organism-based; conditions: in vivo
[23] = Selectivity index, ratio of CC50 for dog MDCK cells to EC50 for antiviral activity against influenza strain A/Aichi/ 2/1968 (H3N2) infected in MDCK cells; format: toxicity, cell-based; conditions: read-out: Selectivity Index
[24] = Selectivity index, ratio of CC50 for dog MDCK cells to EC50 for antiviral activity against influenza strain A/WSN/1933 (H1N1) infected in MDCK cells; format: toxicity, cell-based; conditions: read-out: Selectivity Index
[25] = test system: Influenza A virus; assay: Antiviral activity against influenza strain A/WSN/1933 (H1N1) infected in MDCK cells assessed as reduction of virus-induced cytopathic effect measured after 2 days incubation; format: functional, organism-based; conditions: 48 h
[26] = test system: Influenza A virus; assay: Antiviral activity against influenza strain A/Aichi/ 2/1968 (H3N2) infected in MDCK cells assessed as reduction of virus-induced cytopathic effect measured after 2 days incubation; format: functional, organism-based; conditions: 48 h
[27] = Oral bioavailability in CD-1 mouse at 15 mg/kg measured up to 24 hrs by LC-MS/MS analysis; format: ADME, organism-based; conditions: in vivo
[28] = AUC (0 to infinity) in CD-1 mouse at 15 mg/kg, po measured up to 24 hrs by LC-MS/MS analysis; format: ADME, organism-based; conditions: in vivo
[29] = test system: Influenza A virus; assay: Antiviral activity against influenza virus clinical strain H3N2 (A/Guangdong/2/2023) infected in MDCK cells assessed as reduction of virus-induced cytopathic effect measured after 2 days incubation; format: functional, organism-based; conditions: 48 h
[30] = Tmax in CD-1 mouse at 15 mg/kg, po measured up to 24 hrs by LC-MS/MS analysis; format: ADME, organism-based; conditions: in vivo
[31] = test system: Mus musculus; assay: In vivo inhibition of polymerase acid protein (PA) mRNA expression in H1N1 influenza virus infected in BALB/c mouse at 20 to 40 mg/kg single oral dose by qRT-PCR analysis; format: functional, organism-based; conditions: dose 20-40 mg/kg
[32] = Half life in CD-1 mouse at 1 mg/kg, iv measured up to 24 hrs by LC-MS/MS analysis; format: ADME, organism-based; conditions: in vivo
[33] = test system: Mus musculus; assay: In vivo inhibition of […] (PA) protein expression in H1N1 influenza virus infected in BALB/c mouse at 20 to 40 mg/kg single oral dose by Western blot analysis; format: functional, organism-based; conditions: dose 20-40 mg/kg
[34] = Metabolic stability in mouse liver microsomes assessed as half life measured up to 60 mins by LC-MS/MS analysis; format: ADME, Microsome
[35] = MRT (0 to infinity) in CD-1 mouse at 1 mg/kg, iv measured up to 24 hrs by LC-MS/MS analysis; format: ADME, organism-based; conditions: in vivo
[36] = Cmax in CD-1 mouse at 1 mg/kg, iv measured up to 24 hrs by LC-MS/MS analysis; format: ADME, organism-based; conditions: in vivo
[37] = test system: Mus musculus; assay: In vivo inhibition of […] (PA) mRNA expression in H1N1 influenza virus infected in BALB/c mouse at 20 to 40 mg/kg single oral dose by qRT-PCR analysis; format: functional, organism-based; conditions: dose 20-40 mg/kg
[38] = Half life in CD-1 mouse at 15 mg/kg, po measured up to 24 hrs by LC-MS/MS analysis; format: ADME, organism-based; conditions: in vivo
[39] = Cytotoxicity against dog MDCK cells assessed as cell viability measured after 48 hrs by CCK-8 assay; format: toxicity, cell-based, Canis lupus familiaris
[40] = MRT (0 to infinity) in CD-1 mouse at 15 mg/kg, po measured up to 24 hrs by LC-MS/MS analysis; format: ADME, organism-based; conditions: in vivo
[41] = Cmax in CD-1 mouse at 15 mg/kg, po measured up to 24 hrs by LC-MS/MS analysis; format: ADME, organism-based; conditions: in vivo
[42] = Tmax in CD-1 mouse at 1 mg/kg, iv measured up to 24 hrs by LC-MS/MS analysis; format: ADME, organism-based; conditions: in vivo
[43] = Metabolic stability in mouse liver microsomes assessed as intrinsic clearance measured up to 60 mins by LC-MS/MS analysis; format: ADME, Microsome; conditions: read-out: CLH
[44] = test system: HEK293T; assay: Inhibition of H1N1 influenza virus RdRp extracted for human 293T cells assessed as luminescence signal after 24 hrs incubation by Firefly/Renilla luciferase assay; format: cell-based; conditions: Influenza A virus, dose 0.625-12.5 nM
[45] = test system: Mus musculus; assay: In vivo inhibition of polymerase acid protein (PA) protein expression in H1N1 influenza virus infected in BALB/c mouse at 20 to 40 mg/kg single oral dose by Western blot analysis; format: functional, organism-based; conditions: dose 20-40 mg/kg
[46] = Metabolic stability in human liver microsomes assessed as half life measured up to 60 mins by LC-MS/MS analysis; format: ADME, Microsome
[47] = Metabolic stability in human liver microsomes assessed as intrinsic clearance measured up to 60 mins by LC-MS/MS analysis; format: ADME, Microsome; conditions: read-out: CLH

## COC(=O)OCOc1c2n(ccc1=O)N([C@@H](c1ccc(F)c(F)c1)c1cccs1)[C@@H]1COCCN1C2=O
[1]
  CC50 at 48 h: > 50 µM
[2]
  Activity: Non-toxic
[3]
  Activity: inactive
[4]
  Activity: Active; Surviving Animals Gradually Starting Weight Weight Beginning 9 Dpi
[5]
  Activity: Active
[6]
  Activity: Active
[7]
  CC50 at 48 h: > 50 µM
[8]
  Activity: Active
[9]
  Activity: Active
[10]
  Activity: Non-toxic
[11]
  CC50 at 48 h: 29.9 µM
[12]
  Activity: Non-toxic
[13]
  Activity: Non-toxic
[14]
  Activity: Active
[15]
  Activity: Active
[16]
  CC50 at 48 h: 60.1 µM
[17]
  Activity: Non-toxic
[18]
  Activity: Active
[19]
  Activity: Non-toxic
[20]
  Activity: Active
[21]
  Activity: inactive

## O=C1c2c(O)c(=O)ccn2N([C@@H]2c3ccccc3SCc3c2ccc(F)c3F)[C@@H]2COCCN12 [BALOXAVIR]
[1]
  CC50 at 48 h: 19.1 µM
[4]
  Activity: Active; Surviving Animals Gradually Starting Weight Weight Beginning 9 Dpi
[5]
  Activity: Active
[22]; mouse, iv, 1 mg/kg, 24 h
  AUC: 239 ng·h/mL
[6]
  Activity: Active
[23]
  selectivity ratio: 2440
[7]
  CC50 at 48 h: 7.38 µM
[24]
  selectivity ratio: 5290
[11]
  CC50 at 48 h: 2.86 µM
[25]
  EC50: 0.00176 µM
[26]
  EC50: 0.00381 µM
[27]; mouse, po, 15 mg/kg, 24 h
  F: 27.2%
[16]
  CC50 at 48 h: 9.34 µM
[20]
  Activity: Active
[28]; mouse, po, 15 mg/kg, 24 h
  AUC: 2877 ng·h/mL
[29]
  EC50: 0.00175 µM

## O=C1c2c(O)c(=O)ccn2N([C@@H](c2ccc(F)c(F)c2)c2cccs2)[C@@H]2COCCN12
[1]
  CC50 at 48 h: > 50 µM
[30]
  Tmax: 0.42 h
[31]
  inhibition: Active
[32]
  half-life: 3.43 h
[33]
  inhibition: Active
[34]
  half-life: 38.5 h
[35]
  MRT inf: 2.98 h
[22]; CD-1, mouse
  AUC(0-inf): 1230 ng·h/mL
[36]
  Cmax: 940 ng/mL
[37]
  inhibition: Active
[23]
  selectivity ratio: 7180
[7]
  CC50 at 48 h: 46.3 µM
[24]
  selectivity ratio: 18200
[11]
  CC50 at 48 h: 13.8 µM
[38]
  half-life: 4.3 h
[39]
  CC50 at 48 h: 34.2 µM
[40]
  MRT inf: 2.77 h
[25]
  EC50: 0.00188 µM
[41]
  Cmax: 4070 ng/mL
[42]
  Tmax: 4.8 min
[43]
  CLint scaled: 2.38 mL/min/kg
[44]
  Activity: Dose-dependent-effect
[45]
  inhibition: Active
[26]
  EC50: 0.00477 µM
[46]
  half-life: 12.8 h
[27]; CD-1, mouse
  bioavailability: 71.6%
[16]
  CC50 at 48 h: 41.6 µM
[47]
  CLint scaled: 1.62 mL/min/kg
[28]; CD-1, mouse
  AUC(0-inf): 11100 ng·h/mL
[29]
  EC50: 0.00249 µM
